What was measured:
[1] = system: Primary STAT3^mut bone marrow-derived mast cells (BMMC); assay: BMMC degranulation (LAMP-1 on the plasma membrane by flow cytometry); type: cell-based, mice; settings: DNP-specific IgE then DNP; peptide added prior to DNP; varying concentrations
Protocol: Primary bone marrow-derived mast cells (BMMC) were cultured from STAT3^mut mice in RPMI-1640 Medium (Thermo Fisher Scientific) containing 10% fetal bovine serum (FBS), interleukin-3 (IL-3) and stem cell factor (SCF). To induce degranulation, BMMC were incubated with dinitrophenyl (DNP)-specific IgE followed by addition of DNP to crosslink IgE. To test effects of fMLFF and fMLYF, different concentrations were administered prior to the addition of DNP. Degranulation was measured by the amount of lysosomal-associated membrane protein 1 (LAMP-1) on the plasma membrane by flow cytometry.
Primary STAT3^mut BMMC were treated with varying concentrations of fMLFF and fMLYF (FIG. 3A and FIG. 3B). Data shown in FIG. 3B were summarized from 3 individual experiments; bars indicate means+SEM; **p<0.001; ****p<0.00001, 2-way ANOVA with Tukey's multiple comparison. Assays were performed independently with fMLFF and fMLYF; data shown are cumulative for experiments using fMLFF and fMLYF individually.

circulating IgE levels = assay: IgE production in vivo (serum IgE by ELISA); set-up: species or system STAT3^mut mice; settings: 2.5 mg/kg once per week for 3 weeks
Protocol: Groups (n=4-6/group) were treated with fMLYF (2.5 mg/kg) or vehicle once per week for 3 weeks. Serum was collected to measure effects of peptide treatment on circulating IgE levels via ELISA (FIG. 1 and FIG. 5).

## fMLFF
[1]
  mast cell degranulation in vitro: attenuated
Circulating IgE levels
  IgE production in vivo: attenuated
